Values of other authors in patent US11696905B2, “Ready-to-use tranexamic acid intravenous solution” (Boulevard Patience et Beaujonc Nº3/1, priority 2018, dated 2023).

Assays:
[1] = oral administration
[2] = four doses of 10-20 mg per kg body weight 36-48 hours before surgery

**Q.** Which results are given for NC[C@H]1CC[C@H](C(=O)O)CC1 [Tranexamic acid, trans-4-(aminomethyl)cyclohexanecarboxylic acid]?
**A.** absorption from the human gastrointestinal tract [1]: 40%; time antifibrinolytically active concentration remained in the serum [2]: 7 to 8 h; time antifibrinolytically active concentration remained in the tissues investigated [2]: up to 17 hours; antifibrinolytically active concentration (in vivo): 10 µg/mL
